Where a name gives a salt, the structure may show the parent alone.
Key:
[1] = tested on: c-Kit1; assay: CD melting experiments, c-Kit1 GQ; assay type: binding; details: 2 molar equiv compound, T1/2 of DNA alone 55.0 °C
Description: (§1) The 21 synthesised MTDLs were screened for their ability to bind to and stabilise DNA GQ-forming sequences, compared to berberine, by CD experiments. Indeed, circular dichroism has shown to be outstandingly useful and informative for noncanonical nucleic acid secondary structures. For this purpose, a G-rich 23-nucleotide truncation (23-nt) of the human telomeric sequence (Tel23) and two G-rich motifs from the promoter regions of c-KIT (c-Kit1) and c-MYC (c-Myc) oncogenes were employed. First, the overall topology adopted by each DNA sequence in K^+-containing buffer was verified by CD spectra. […] GQ conformation (Figure S1, Supporting Information). On the other hand, c-Kit1 and c-Myc sequences adopted a parallel GQ conformation, showing a distinctive positive band at around 260 nm and a negative one at ∼240 nm in their CD spectra (Figures S2 and S3, Supporting Information).
(§2) Afterwards, the GQ-stabilising properties of the molecules were assessed by CD melting experiments, measuring the differences in the apparent melting temperatures of the DNA in the presence and absence of compounds (ΔT1/2) (Figures S4–S6 and Table S2, Supporting Information). […] This could be explained by considering the higher accessibility of the external G-tetrads in the case of parallel GQs compared to the hybrid one[52], which would allow the additional CAI moiety of conjugated compounds to be better accommodated in the binding site. […] . […] .

[2] = tested on: Hairpin; assay: CD melting experiments, hairpin DNA duplex; details: 2 molar equiv compound, T1/2 of DNA alone 66.0 °C
Description: To evaluate the possible binding and stabilisation of double-stranded DNA, a 27-nt long hairpin-forming sequence (Hairpin) was employed.
In particular, the following DNA sequences were synthesised and employed for the experiments: d([sequence]) (c-Kit1), d([sequence]) (c-Myc), d([sequence]) (Tel23), and d([sequence]) (Hairpin). Oligonucleotides were dissolved in the proper buffer and their concentration was measured by UV absorption at 90 °C, as previously reported[80]^,[81]. To achieve the correct folding of the sequences, the DNA solutions were heated in a water bath at 90 °C for 5 min, and then allowed to cool slowly to room temperature overnight. Then, DNA samples were stored at 4 °C for 24 h, before data acquisition.
The samples were prepared by dissolving the oligonucleotides in 5 mM KH2PO4/K2HPO4 buffer (pH 7.0) containing 20 mM KCl (or LiCl in the case of c-Myc because of its high thermal stability). DNA concentrations of 20 µM for GQs and 30 µM for Hairpin were used. For each compound, a 10 mM stock solution in 100% DMSO was prepared. […] CD spectra were acquired at 20 and 100 °C, in the 230–320 nm wavelength range, averaged over three scans and subtracted of the buffer baseline. The scanning speed was set to 100 nm/min, with a 0.5 s response time, and 1 nm bandwidth. CD melting experiments were carried out in the 20–100 °C temperature range, with 1 °C/min heating rate, by following changes in the CD signal at the wavelengths of the maximum CD intensity (i.e. 263 nm for c-Kit1 and c-Myc, and 290 nm for Tel23). As for Hairpin, CD melting curves were recorded by following the changes in the CD signal at 252 nm (the wavelength of the minimum CD intensity). CD melting curves were normalised between 0 and 1. […] The ΔT1/2 values correspond to the difference in the T1/2 values of the nucleic acid structures in the presence and absence of the compounds. All experiments were performed in duplicate, and the reported values are the mean of the two measurements.

[3] = tested on: Tel23; assay: CD melting experiments, Tel23 GQ; assay type: binding, human; details: 2 molar equiv compound, T1/2 of DNA alone 53.5 °C
Description: as §1, §2

[4] = tested on: c-Myc; assay: CD melting experiments, c-Myc GQ; assay type: binding; details: 1 molar equiv compound, T1/2 of DNA alone 70.0 °C
Description: as §1, §2

[5] = tested on: HeLa cells; assay: MTT assay, HeLa cells in normoxia; assay type: cell-based; details: 48 h
Description: Combining the results on carbonic anhydrase inhibition and GQ thermal stabilisation, we selected the sulphonamides S-2,0, S-4,0, S-5,0 and the coumarins C-3,2, C-4,2, C-5,2 as the most promising MTDLs to be further investigated, since able to both efficiently suppress the activity of the hCAs IX/XII and stabilise GQ structures, in vitro. Moreover, given that crystals suitable for X-ray diffraction analyses had been successfully obtained for the human telomeric DNA GQ in complex with S-3,2, we also included such sulphonamide derivative in the subsequent studies. Thus, we assessed the cytotoxicity of the selected MTDLs on CA IX-positive HeLa cells, using the MTT assay.
HeLa cells were grown in Dulbecco’s Modified Eagle’s Medium supplemented with 10% FBS, 100 U/mL penicillin, and 100 μg/mL streptomycin, at 37 °C, in a 5% CO2/95% air atmosphere. Cells were sub-cultured at 90% confluence, in the split ratio 1:8, every 3–5 days. The MTDLs used in this study, as well as the CAIs S and C, were dissolved in DMSO at 40 mM (for the sulphonamides) or 10 mM (for the coumarins) concentration. As for berberine, a 50 mM stock solution in DMSO was prepared. Each tested compound was diluted in cell culture medium to the required concentration, immediately prior to use. As regards the experiments under hypoxic conditions, an 80 mM stock solution of CoCl2 was prepared in sterile distilled water and further diluted in medium to obtain the final desired concentrations.
For the MTT experiments in the presence of normal oxygen levels, HeLa cells were seeded in 96-well plates at a density of 15,000 cells per well (culture medium volume – 100 μL/well) and incubated at 37 °C, for 24 h. The medium was then removed, and HeLa were incubated, for 48 h, with fresh medium containing increasing concentrations of MTDLs, single-target-directed agents (berberine, S, and C) or vehicle (0.5% DMSO). The MTDL C-4,2 was also tested for 12 h. As for the co-treatments, cells were co-treated for 12 h with equimolar concentrations of berberine and C. As regards the MTT experiments under hypoxic conditions, HeLa cells were seeded in 96-well plates (8,000 cells per well) and incubated overnight, pre-treated with 50 μM cobalt (II) chloride hexahydrate (CoCl2) and then, for the following 12 h, either exposed to increasing concentrations of C-4,2 or vehicle (0.5% DMSO), or co-treated with equimolar concentrations of berberine and C. Each condition was assayed in triplicate. At the end of the treatments, 10 µL of MTT reagent were added to each well, at a final concentration of 0.5 mg/mL, and the plates were incubated at 37 °C for 4 h. To dissolve the resulting purple formazan crystals, 100 μL of the solubilisation solution were added into each well and the plates were allowed to stand overnight in the incubator (37 °C, 5% CO2/95% air). Finally, the optical density of the samples (at 570 nm) was measured on an ELx800 Absorbance Microplate Reader (BioTek Instruments, Inc., Winooski, VT, USA). The percentage (%) of cell survival for each condition was calculated by using the following equation: % cell survival=OD− OD0/ODCONTROL− OD0×100 where OD is the optical density of the sample, OD0 is the optical density of the background signal, and ODCONTROL is the optical density of the control sample (cells treated with vehicle, 0.5% DMSO). The concentration able to reduce by 50% the cellular viability (IC50) was calculated, for each investigated compound, using Prism 8.0.2 (GraphPad, San Diego, CA, USA) and plotting the percentage of cell survival versus the compound concentration (µM).

Compound | melting point | further results
COc1ccc2cc3[n+](cc2c1OCCn1cc(-c2ccc(S(N)(=O)=O)cc2)nn1)CCc1cc2c(cc1-3)OCO2 (as salt: phosphate) [Compound 26, 10-Methoxy-9–(2-(4–(4-sulfamoylphenyl)-1H-1,2,3-triazol-1-yl)ethoxy)-5,6-dihydro-[1,3]dioxolo[4,5-g]isoquinolino[3,2-a]isoquinolin-7-ium hexafluorophosphate] | 212 to 215 °C | –
COc1ccc2cc3[n+](cc2c1OCCn1cc(COc2ccc(S(N)(=O)=O)cc2)nn1)CCc1cc2c(cc1-3)OCO2 (as salt: phosphate) [Compound 27, 10-Methoxy-9–(2-(4-((4-sulfamoylphenoxy)methyl)-1H-1,2,3-triazol-1-yl)ethoxy)-5,6-dihydro-[1,3]dioxolo[4,5-g]isoquinolino[3,2-a]isoquinolin-7-ium hexafluorophosphate] | 183 to 185 °C | –
COc1ccc2cc3[n+](cc2c1OCCCn1cc(-c2ccc(S(N)(=O)=O)cc2)nn1)CCc1cc2c(cc1-3)OCO2 (as salt: phosphate) [Compound 28, 10-Methoxy-9–(3-(4–(4-sulfamoylphenyl)-1H-1,2,3-triazol-1-yl)propoxy)-5,6-dihydro-[1,3]dioxolo[4,5-g]isoquinolino[3,2-a]isoquinolin-7-ium hexafluorophosphate] | 205 to 208 °C | –
COc1ccc2cc3[n+](cc2c1OCCCn1cc(COc2ccc(S(N)(=O)=O)cc2)nn1)CCc1cc2c(cc1-3)OCO2 (as salt: phosphate) [Compound 29, 10-Methoxy-9–(3-(4-((4-sulfamoylphenoxy)methyl)-1H-1,2,3-triazol-1-yl)propoxy)-5,6-dihydro-[1,3]dioxolo[4,5-g]isoquinolino[3,2-a]isoquinolin-7-ium hexafluorophosphate] | 120 to 122 °C | –
COc1ccc2cc3[n+](cc2c1OCCCCn1cc(COc2ccc(S(N)(=O)=O)cc2)nn1)CCc1cc2c(cc1-3)OCO2 (as salt: phosphate) [Compound 31, 10-Methoxy-9–(4-(4-((4-sulfamoylphenoxy)methyl)-1H-1,2,3-triazol-1-yl)butoxy)-5,6-dihydro-[1,3]dioxolo[4,5-g]isoquinolino[3,2-a]isoquinolin-7-ium hexafluorophosphate] | 165 to 168 °C | –
COc1ccc2cc3[n+](cc2c1OCCCCn1cc(CCOc2ccc4ccc(=O)oc4c2)nn1)CCc1cc2c(cc1-3)OCO2 (as salt: phosphate) [Compound 38, 10-Methoxy-9–(4-(4–(2-((2-oxo-2H-chromen-7-yl)oxy)ethyl)-1H-1,2,3-triazol-1-yl)butoxy)-5,6-dihydro-[1,3]dioxolo[4,5-g]isoquinolino[3,2-a]isoquinolin-7-ium hexafluorophosphate] | 185 to 186 °C | –
COc1ccc2cc3[n+](cc2c1OC)CCc1cc2c(cc1-3)OCO2 [Berberine, berberine, reference compound] | – | ΔT1/2 c-Kit1 [1]: 13.0 °C; ΔT1/2 Hairpin [2]: +0.2 °C; ΔT1/2 Tel23 [3]: 9.5 °C; ΔT1/2 c-Myc [4]: 12.0 °C; effect on HeLa cell viability (in words) ([5]; increasing concentrations): good dose-dependent cytotoxic effect; IC50 ([5]; Homo sapiens, normoxia, read-out: IC50 (50% of cell viability reduction), MTT assay): 75 µM

Continued, in another order:

melting point | Compound | further results
200 to 202 °C | COc1ccc2cc3[n+](cc2c1OCCCCCn1cc(-c2ccc(S(N)(=O)=O)cc2)nn1)CCc1cc2c(cc1-3)OCO2 (as salt: phosphate) [Compound 32, 10-Methoxy-9-((5–(4-(4-sulfamoylphenyl)-1H-1,2,3-triazol-1-yl)pentyl)oxy)-5,6-dihydro-[1,3]dioxolo[4,5-g]isoquinolino[3,2-a]isoquinolin-7-ium hexafluorophosphate] | –
168 to 171 °C | COc1ccc2cc3[n+](cc2c1OCCCCCn1cc(COc2ccc(S(N)(=O)=O)cc2)nn1)CCc1cc2c(cc1-3)OCO2 (as salt: phosphate) [Compound 33, 10-Methoxy-9-((5–(4-((4-sulfamoylphenoxy)methyl)-1H-1,2,3-triazol-1-yl)pentyl)oxy)-5,6-dihydro-[1,3]dioxolo[4,5-g]isoquinolino[3,2-a]isoquinolin-7-ium hexafluorophosphate] | –
140 °C | COc1ccc2cc3[n+](cc2c1OCCCn1cc(COc2ccc4ccc(=O)oc4c2)nn1)CCc1cc2c(cc1-3)OCO2 (as salt: phosphate) [Compound 34, 10-Methoxy-9–(3-(4-(((2-oxo-2H-chromen-7-yl)oxy)methyl)-1H-1,2,3-triazol-1-yl)propoxy)-5,6-dihydro-[1,3]dioxolo[4,5-g]isoquinolino[3,2-a]isoquinolin-7-ium hexafluorophosphate] | –
130 to 131 °C | COc1ccc2cc3[n+](cc2c1OCCCn1cc(CCOc2ccc4ccc(=O)oc4c2)nn1)CCc1cc2c(cc1-3)OCO2 (as salt: phosphate) [Compound 35, 10-Methoxy-9–(3-(4–(2-((2-oxo-2H-chromen-7-yl)oxy)ethyl)-1H-1,2,3-triazol-1-yl)propoxy)-5,6-dihydro-[1,3]dioxolo[4,5-g]isoquinolino[3,2-a]isoquinolin-7-ium hexafluorophosphate] | –
195 to 198 °C | COc1ccc2cc3[n+](cc2c1OCc1cn(-c2cccc(S(N)(=O)=O)c2)nn1)CCc1cc2c(cc1-3)OCO2 (as salt: phosphate) [Compound 40, 10-Methoxy-9-((1–(3-sulfamoylphenyl)-1H-1,2,3-triazol-4-yl)methoxy)-5,6-dihydro-[1,3]dioxolo[4,5-g]isoquinolino[3,2-a]isoquinolin-7-ium hexafluorophosphate] | –
117 to 118 °C | COc1ccc2cc3[n+](cc2c1OCc1cn(CCCOc2ccc4ccc(=O)oc4c2)nn1)CCc1cc2c(cc1-3)OCO2 (as salt: phosphate) [Compound 42, 10-Methoxy-9-((1–(3-((2-oxo-2H-chromen-7-yl)oxy)propyl)-1H-1,2,3-triazol-4-yl)methoxy)-5,6-dihydro-[1,3]dioxolo[4,5-g]isoquinolino[3,2-a]isoquinolin-7-ium hexafluorophosphate] | –
124 to 125 °C | COc1ccc2cc3[n+](cc2c1OCc1cn(CCCCOc2ccc4ccc(=O)oc4c2)nn1)CCc1cc2c(cc1-3)OCO2 (as salt: phosphate) [Compound 43, 10-Methoxy-9-((1–(4-((2-oxo-2H-chromen-7-yl)oxy)butyl)-1H-1,2,3-triazol-4-yl)methoxy)-5,6-dihydro-[1,3]dioxolo[4,5-g]isoquinolino[3,2-a]isoquinolin-7-ium hexafluorophosphate] | –
